# According to ChEMBL document CHEMBL1134825, “Semi-synthesis of 2-deoxo- and 3-epi-paraherquamide A” (Bioorg Med Chem Lett, 2001):
# Active and inactive are the calls of the source. The calls are words filed in the database; no cut-off is given here.
# Key:
# helminth = assay: Compound was tested for antihelminthic activity; No activity; format: functional
# [1] = Lethal dose in mice was determined; format: toxicity, organism-based; conditions: mouse, in vivo
# [2] = Lethal dose in dog was determined; format: toxicity, organism-based, Canis lupus familiaris; conditions: in vivo
Structure (SMILES),Activity (helminth),LD50 [1],LD50 [2]
CN1C(=O)[C@]23CC4C1(CN2CC[C@@]3(C)O)CC1(C(=O)Nc2c1ccc1c2OC=CC(C)(C)O1)C4(C)C (stereo partly drawn),inactive,,
CN1C(=O)[C@]23C[C@@H]4C(C)(C)[C@@]5(C[C@@]41CN2CC[C@@]3(C)O)C(=O)Nc1c5ccc2c1OC=CC(C)(C)O2 [Paraherquamide A],,< 15 mg/kg,0.5 mg/kg
